Assay results taken from ChEMBL document CHEMBL3232784, “Fluorescent analog of OSW-1 and its cellular localization” (Bioorg Med Chem Lett, 2014).
The source made the active and inactive calls. The calls are words filed in the database; no cut-off is given here.

How the values were obtained:
HeLa [1] = assay: Cytotoxicity against human HeLa cells after 24 hrs by XTT assay; type: functional, cell-based
[2] = Cellular uptake in perinuclear region of cytoplasm in human HeLa cells at 1 uM after 1 hr by fluorescence microscopic analysis; type: ADME, cell-based
[3] = Cytotoxicity against human NCI60 cells; type: functional, cell-based
[4] = Cellular uptake in human HeLa cell mitochondria at 1 uM by […]-based fluorescence microscopic analysis; type: ADME
[5] = Cellular uptake in perinuclear region of cytoplasm in human HeLa cells at 0.13 to 1 uM after 1 hr by fluorescence microscopic analysis; type: ADME, cell-based
HeLa [6] = assay: Cellular uptake in human HeLa cells at 0.5 uM at 37 degC after 30 mins by fluorescence microscopic analysis; type: ADME, cell-based; details: 0.5 h
[7] = Cellular uptake in human HeLa cell endoplasmic reticulum at 1 uM by […] staining-based fluorescence microscopic analysis; type: ADME
[8] = Cellular uptake in perinuclear region of cytoplasm in human HeLa cells at 0.5 uM after 10 mins by fluorescence microscopic analysis; type: ADME, cell-based
[9] = Cellular uptake in human HeLa cell golgi complex at 1 uM by BODIPY TR-ceramide-based fluorescence microscopic analysis; type: ADME
HeLa [10] = assay: Cellular uptake in human HeLa cells at 0.5 uM at 4 degC after 30 mins by fluorescence microscopic analysis; type: ADME, cell-based; details: 0.5 h
HeLa [11] = assay: Cellular uptake in human HeLa cell lysate at 1 uM after 1 hr by fluorescence spectroscopic analysis; type: ADME, cell-based

Row | Drug uptake [2] | Drug uptake [4] | Drug uptake [5] | Drug uptake (HeLa [6]) | Drug uptake [7] | Drug uptake [8] | Drug uptake [9] | Drug uptake (HeLa [10]) | Drug uptake (HeLa [11]) | Structure (SMILES) | inhibition (HeLa [1]) | IC50 [3] [nM] | IC50 (HeLa [1]) [nM]
1 | Not Active |  |  |  |  |  |  |  |  | COC(=O)CN(C)c1ccc(S(=O)(=O)N(C)C)c2nonc12 | inactive |  | 
2 |  |  |  |  |  |  |  |  |  | COc1ccc(C(=O)O[C@H]2[C@H](O[C@@H]3[C@@H](OC(C)=O)[C@H](O[C@H]4C[C@H]5[C@@H]6CC=C7C[C@@H](O)CC[C@]7(C)[C@H]6CC[C@]5(C)[C@@]4(O)[C@H](C)C(=O)CCC(C)C)OC[C@@H]3O)OC[C@@H](O)[C@@H]2O)cc1 |  | 0.78 | 2.6
3 |  | Not Active | Active | Active | Active | Active | Active | Not Active | Active | COc1ccc(C(=O)O[C@H]2[C@H](O[C@@H]3[C@@H](OC(C)=O)[C@H](O[C@H]4C[C@H]5[C@@H]6CC=C7C[C@@H](O)CC[C@]7(C)[C@H]6CC[C@]5(C)[C@@]4(O)[C@H](C)C(=O)CCC(C)C)OC[C@@H]3O)OC[C@@H](O)[C@@H]2OC(=O)CN(C)c2ccc(S(=O)(=O)N(C)C)c3nonc23)cc1 |  |  | 5
